{"source": "paper PMC10959927", "about": "“Platinum iodido drugs show potential anti-tumor activity, affecting cancer cell metabolism and inducing ROS and senescence in gastrointestinal cancer cells” (Communications Biology, 2024)", "format_in_all_cases": "cell-based, human", "key": {"PANC1 cells [1]": {"tested_on": "PANC1 cells", "experiment": "ATP determination assay (bioluminescence)", "settings": "replicates", "procedure": "(§1) ATP determination assay. […] The analysis was performed using the ATP Bioluminescense Assay Kit CLS II (Cat. no. 11699695001, Roche) according to the manufacturer’s instructions. […] Data were normalized to total protein using the BCA protein assay kit (Thermo Scientific)."}, "AGS cells [2]": {"tested_on": "AGS cells", "experiment": "ATP determination assay (bioluminescence)", "settings": "replicates", "procedure": "as §1"}, "MKN45 cells [3]": {"tested_on": "MKN45 cells", "experiment": "ATP determination assay (bioluminescence)", "settings": "replicates", "procedure": "as §1"}, "PANC1 cells [4]": {"tested_on": "PANC1 cells", "experiment": "Lactate production assay", "settings": "replicates", "procedure": "(§2) Lactate production assay. […] Proteins were removed from 50 μL of the medium by adding 100 μL of 8% Percloric Acid and 40% EtOH at 4 °C, and centrifuging at 2 × 10^4 g for 10 min at 4 °C. The supernatants were then frozen until the lactate in 15 μL of each sample, or lactate standard, was measured mixed with 150 μl of assay buffer (0.5 M glycine [pH 9.5], 0.2 M Hydrazine, 3.4 mM EDTA), 100 μl of H20, 5 μL of 1100 U/mL LDH (Roche) and 30 μL of 15 mM NAD + . NADH production was evaluated by measuring absorbance at 340 nm in a multiplate reader (Synergy HT, Biotek) and it was proportional to the lactic acid concentration in the sample after a 2 h incubation. The lactate concentration was normalized to the total amount of protein measured with the Micro BCA Protein Assay Kit (Thermo Scientific). Assays were performed in triplicate in three independent experiments."}, "AGS cells [5]": {"tested_on": "AGS cells", "experiment": "Lactate production assay", "settings": "replicates", "procedure": "as §2"}, "MKN45 cells [6]": {"tested_on": "MKN45 cells", "experiment": "Lactate production assay", "settings": "replicates", "procedure": "as §2"}, "AGS cells [7]": {"tested_on": "AGS cells", "experiment": "Seahorse XF OCR, ECAR and energy map", "procedure": "(§3) Oxygen Consumption Rate (OCR), Extra Cellular Acidification Rate (ECAR) and Energy map measurements. Cells were plated in XF HS Miniplates (Seahorse Bioscience) at a cellular density of 1 × 10^4 cells/well and incubated overnight. […] After an OCR baseline measurement, the minimum oxygen consumption was determined by adding 1.5 µM oligomycin (O) and the maximal respiration rate was assessed by adding 1 µM carbonyl cyanide p-trifluoro methoxyphenylhydrazone (FCCP, F). At the end of the experiment, the non-mitochondrial oxygen consumption was evaluated by adding both 0.5 µM rotenone (R) and antimycin (A). Experiments were run in a XF HS Mini analyzer (Seahorse Agilent), and raw data were normalized to total protein using a BCA protein assay kit (Cat. no. 23225, Thermo Scientific)."}, "PANC1 cells [8]": {"tested_on": "PANC1 cells", "experiment": "Seahorse XF OCR, ECAR and energy map", "parameters": "Basal resp. / Maximal resp. / SRC: unit not given here", "procedure": "as §3"}}, "note": "“And” between values parts separate entries of the source, which are not always exact repeats. Identical values can stand only once."}
{"compound": "CC(C)[NH][Pt@SP1]([I])([I])[NH]C(C)C", "note": "[I6, cis-[PtI2(isopropylamine)2]]", "values": [{"measurement": "ATP assay", "setting": "PANC1 cells [1]", "result": "7880 nmoles ATP/mg prot and 13332.3 nmoles ATP/mg prot and 3956 nmoles ATP/mg prot and 3277.42 nmoles ATP/mg prot and 6180.37 nmoles ATP/mg prot and 5189.49 nmoles ATP/mg prot and 6520 nmoles ATP/mg prot and 7744.41 nmoles ATP/mg prot and 6743.81 nmoles ATP/mg prot"}, {"measurement": "ATP assay", "setting": "AGS cells [2]", "result": "0.001 nmoles ATP/mg prot and 0.003 nmoles ATP/mg prot and 0.01 nmoles ATP/mg prot and 0 nmoles ATP/mg prot and 0.005 nmoles ATP/mg prot and 0.002 nmoles ATP/mg prot"}, {"measurement": "ATP assay", "setting": "MKN45 cells [3]", "result": "5246 nmoles ATP/mg prot and 3320.9 nmoles ATP/mg prot and 18883.3 nmoles ATP/mg prot and 23272 nmoles ATP/mg prot and 3325.73 nmoles ATP/mg prot and 3863.84 nmoles ATP/mg prot and 4434 nmoles ATP/mg prot and 3684.47 nmoles ATP/mg prot and 4201.47 nmoles ATP/mg prot"}, {"measurement": "lactate assay", "setting": "PANC1 cells [4]", "result": "11.33 Lactate mM/mg prot and 12.9 Lactate mM/mg prot and 10.14 Lactate mM/mg prot and 5.296 Lactate mM/mg prot and 5.829 Lactate mM/mg prot and 4.94 Lactate mM/mg prot and 4.32 Lactate mM/mg prot and 4.21 Lactate mM/mg prot and 4.26 Lactate mM/mg prot"}, {"measurement": "lactate assay", "setting": "AGS cells [5]", "result": "3.22 Lactate mM/mg prot and 1.52 Lactate mM/mg prot and 3.74 Lactate mM/mg prot and 3.2668 Lactate mM/mg prot and 2.67 Lactate mM/mg prot and 5.511 Lactate mM/mg prot and 0.01 Lactate mM/mg prot and 0.02 Lactate mM/mg prot and 0.03 Lactate mM/mg prot"}, {"measurement": "lactate assay", "setting": "MKN45 cells [6]", "result": "3.98 Lactate mM/mg prot and 8.05 Lactate mM/mg prot and 7.53 Lactate mM/mg prot and 3.819 Lactate mM/mg prot and 1.91 Lactate mM/mg prot and 4.092 Lactate mM/mg prot and 2.56 Lactate mM/mg prot and 2.5 Lactate mM/mg prot and 2.54 Lactate mM/mg prot"}, {"measurement": "ECAR, Mean (energy map)", "setting": "AGS cells [7]; AGS (with I5)", "result": 23.74, "unit": "mpH/min/absorbance"}, {"measurement": "OCR, Mean (energy map)", "setting": "AGS cells [7]; AGS (with I5)", "result": 42.84, "unit": "pmol/min/absorbance"}, {"measurement": "ECAR (energy map)", "setting": "AGS cells [7]; AGS (with I6)", "result": 45.46, "unit": "mpH/min/absorbance"}, {"measurement": "ECAR, Mean (energy map)", "setting": "AGS cells [7]; AGS (with I6)", "result": 48.0093, "unit": "mpH/min/absorbance"}, {"measurement": "OCR (energy map)", "setting": "AGS cells [7]; AGS (with I6)", "result": 48.01, "unit": "pmol/min/absorbance"}, {"measurement": "OCR, Mean (energy map)", "setting": "AGS cells [7]; AGS (with I6)", "result": 45.4641, "unit": "pmol/min/absorbance"}, {"measurement": "effect on ECAR", "setting": "AGS cells [7]; AGS, IC50 24 h", "result": "no apparent effect"}, {"measurement": "OCR", "setting": "AGS cells [7]; AGS, IC50 24 h, time 1.53 min (I5) / 1.53 min (I6)", "result": "30.1319 pmoles/min/µg protein and 31.3797 pmoles/min/µg protein and 53.7109 pmoles/min/µg protein"}, {"measurement": "OCR", "setting": "AGS cells [7]; AGS, IC50 24 h, time 8.04 min (I5) / 8.02 min (I6)", "result": "24.9329 pmoles/min/µg protein and 27.5046 pmoles/min/µg protein and 48.0298 pmoles/min/µg protein"}, {"measurement": "OCR", "setting": "AGS cells [7]; AGS, IC50 24 h, time 14.54 min (I5) / 14.51 min (I6)", "result": "26.4797 pmoles/min/µg protein and 27.4562 pmoles/min/µg protein and 48.9415 pmoles/min/µg protein"}, {"measurement": "OCR", "setting": "AGS cells [7]; AGS, IC50 24 h, time 21.13 min (I5) / 21.08 min (I6)", "result": "22.9934 pmoles/min/µg protein and 21.9038 pmoles/min/µg protein and 30.7096 pmoles/min/µg protein"}, {"measurement": "OCR", "setting": "AGS cells [7]; AGS, IC50 24 h, time 27.59 min (I5) / 27.57 min (I6)", "result": "20.5189 pmoles/min/µg protein and 20.6073 pmoles/min/µg protein and 30.1901 pmoles/min/µg protein"}, {"measurement": "OCR", "setting": "AGS cells [7]; AGS, IC50 24 h, time 34.07 min (I5) / 34.06 min (I6)", "result": "21.4481 pmoles/min/µg protein and 20.5528 pmoles/min/µg protein and 31.2982 pmoles/min/µg protein"}, {"measurement": "OCR", "setting": "AGS cells [7]; AGS, IC50 24 h, time 60.15 min (I5) / 60.16 min (I6)", "result": "12.0701 pmoles/min/µg protein and 11.1961 pmoles/min/µg protein and 18.1823 pmoles/min/µg protein"}, {"measurement": "OCR", "setting": "AGS cells [7]; AGS, IC50 24 h, time 66.63 min (I5) / 66.65 min (I6)", "result": "12.0579 pmoles/min/µg protein and 11.0677 pmoles/min/µg protein and 17.3668 pmoles/min/µg protein"}, {"measurement": "OCR", "setting": "AGS cells [7]; AGS, IC50 24 h, time 73.12 min (I5) / 73.14 min (I6)", "result": "11.7846 pmoles/min/µg protein and 9.533 pmoles/min/µg protein and 17.3382 pmoles/min/µg protein"}, {"measurement": "ECAR, Mean (energy map)", "setting": "PANC1 cells [8]; PANC1 (with I5)", "result": 7.18, "unit": "mpH/min/absorbance"}, {"measurement": "OCR, Mean (energy map)", "setting": "PANC1 cells [8]; PANC1 (with I5)", "result": 8.75, "unit": "pmol/min/absorbance"}, {"measurement": "ECAR (energy map)", "setting": "PANC1 cells [8]; PANC1 (with I6)", "result": 32.52, "unit": "mpH/min/absorbance"}, {"measurement": "ECAR, Mean (energy map)", "setting": "PANC1 cells [8]; PANC1 (with I6)", "result": 146.969, "unit": "mpH/min/absorbance"}, {"measurement": "OCR (energy map)", "setting": "PANC1 cells [8]; PANC1 (with I6)", "result": 147, "unit": "pmol/min/absorbance"}, {"measurement": "OCR, Mean (energy map)", "setting": "PANC1 cells [8]; PANC1 (with I6)", "result": 32.5207, "unit": "pmol/min/absorbance"}, {"measurement": "ATP-product. coupled resp.", "setting": "PANC1 cells [8]; PANC1, IC50 24 h", "result": "76.46 and 74.62 and 73.2"}, {"measurement": "Basal resp.", "setting": "PANC1 cells [8]; PANC1, IC50 24 h", "result": "102.88 and 97.93 and 95.39"}, {"measurement": "Maximal resp.", "setting": "PANC1 cells [8]; PANC1, IC50 24 h", "result": "174.57 and 152.73 and 164.59"}, {"measurement": "SRC", "setting": "PANC1 cells [8]; PANC1, IC50 24 h", "result": "71.69 and 54.8 and 69.2"}, {"measurement": "effect on ECAR", "setting": "PANC1 cells [8]; PANC1, IC50 24 h", "result": "no apparent effect"}]}
